Data reported in US4962109A, “Insecticidally and acaricidally active pyrimidine esters and intermediates therefor” (Imperial Chemical Industries PLC, priority 1985, dated 1990).

How the values were obtained:
Assay type in all cases: in vivo
[1] = test system: Tetranychus urticae (spider mites - adult); assay: Contact test on spider mites - adult (TUa), French bean leaf, mortality; details: 72 h, 500 ppm, contact, 3 days, read-out: TUa grading of mortality
Method: (§1) The activity of the Product was determined using a variety of insect pests. The Product was used in the form of liquid preparations containing 500, 250 or 100 parts per million (ppm) by weight of the Product. The preparations were made by dissolving the Product in acetone and diluting the solutions with water containing 0.01% by weight of a wetting agent sold under the trade name "LISSAPOL" NX until the liquid preparations contained the required concentration of the Product. "Lissapol" is a Registered Trade Mark.
(§2) The test procedure adopted with regard to each pest was basically the same and comprised supporting a number of the pests on a medium which was usually a host plant or a foodstuff on which the pests feed, and treating either or both the pests and the medium with the preparations. The mortality of the pests was then assessed at periods usually varying from one to three days after the treatment.
(§3) The results of the tests are given in Table III for each of the Products, at the rate in parts per million given in the second column as a grading of mortality designated as A, B or C wherein A indicates 80-100% mortality or knockdown, B indicates 50-79% mortality or knockdown and C indicates less than 50% mortality or knockdown.

[2] = test system: Tetranychus urticae (spider mites - ova); assay: Contact test on spider mites - ova (TUe), French bean leaf, mortality; details: 144 h, 500 ppm, contact, 6 days, read-out: TUe grading of mortality
Method: as §1, §2, §3

[3] = test system: Myzus persicae (aphids); assay: Contact test on aphids (MP), Chinese Cabbage leaf, mortality; details: 72 h, 500 ppm, contact, 3 days, read-out: MP grading of mortality
Method: as §1, §2, §3

[4] = test system: Nephotettix cincticeps (green leaf hopper - nymphs); assay: Contact test on green leaf hopper nymphs (NC), Rice plant, mortality; details: 48 h, 500 ppm, contact, 2 days, read-out: NC grading of mortality
Method: as §1, §2, §3
NC Nephotettix cincticeps

[5] = test system: Musca domestica (houseflies - adults); assay: Knockdown test on houseflies - adults (MD/KD), Cotton wool/sugar; details: 500 ppm, 4 hours, read-out: MD/KD grading of knockdown
Method: as §1, §2
In the case of the species Musca domestica (housefly), additional tests to determine the knockdown effect of the compounds were performed. PG,163
as §3

[6] = test system: Musca domestica (houseflies - adults); assay: Contact test on houseflies - adults (MD), Cotton wool/sugar, mortality; details: 72 h, 500 ppm, contact, 3 days, read-out: MD grading of mortality
Method: as §1, §2, §3

[7] = test system: Blattella germanica (cockroach nymphs); assay: Contact test on cockroach nymphs (BG/C), Plastic pot, mortality; details: 48 h, 500 ppm, contact, 2 days, read-out: BG/C grading of mortality
Method: as §1, §2, §3
BG/C Blattella germanica

[8] = test system: Heliothis virescens (tobacco budworm - larvae); assay: Residual test on tobacco budworm larvae (HV), Cotton leaf, mortality; details: 48 h, read-out: HV grading of mortality
Method: as §1, §2, §3
(tobacco budworm - larvae)

[9] = test system: Spodoptera exigua (lesser army worm - larvae); assay: Residual test on lesser army worm larvae (SP), Cotton leaf, mortality; details: 48 h, 500 ppm, residual, 2 days, read-out: SP grading of mortality
Method: as §1, §2, §3
(lesser army worm - larvae)

[10] = test system: Diabrotica balteata (rootworm larvae); assay: Residual test on rootworm larvae (DB), Filter paper/maize seed, mortality; details: 48 h, 500 ppm, residual, 2 days, read-out: DB grading of mortality
Method: as §1, §2, §3

## COc1c(F)c(COc2ccccc2)c(F)c(F)c1COC(=O)C(c1cnc(C(C)(C)C)nc1)C(C)(C)C (racemic) [Compound 193, 2,3,5-trifluoro-6-methoxy-4-(phenoxymethyl)benzyl (RS)-2-[2-(1,1-dimethylethyl)pyrimidin-5-yl]-3,3-dimethylbutanoate]
[1]
  mortality at 500 ppm: 80 to 100%
[2]
  mortality at 500 ppm: < 50%
[3]
  mortality at 500 ppm: 80 to 100%
[4]
  mortality at 500 ppm: 50 to 79%
[5]
  pest or weed control at 500 ppm: < 50%
[6]
  mortality at 500 ppm: < 50%
[7]
  mortality at 500 ppm: < 50%
[8]
  mortality at 500 ppm: < 50%
[9]
  mortality at 500 ppm: 80 to 100%
[10]
  mortality at 500 ppm: < 50%

## CC(C)C(=O)OCc1c(F)c(F)c(COC(=O)C(c2cnc(C(C)(C)C)nc2)C(C)(C)C)c(F)c1F (racemic) [Compound 173, 4-[(2-methylpropionyl)oxymethyl]-2,3,5,6-tetrafluorobenzyl (RS)-2-[2-(1,1-dimethylethyl)pyrimidin-5-yl]-3,3-dimethylbutanoate]
[1]
  mortality at 500 ppm: 80 to 100%
[2]
  mortality at 500 ppm: < 50%
[3]
  mortality at 500 ppm: 80 to 100%
[4]
  mortality at 500 ppm: 80 to 100%
[5]
  pest or weed control at 500 ppm: < 50%
[6]
  mortality at 500 ppm: < 50%
[7]
  mortality at 500 ppm: < 50%
[8]
  mortality at 500 ppm: 80 to 100%
[9]
  mortality at 500 ppm: 80 to 100%
[10]
  mortality at 500 ppm: < 50%

## CC(C)(C)c1ncc(C(C(=O)OCc2c(F)c(F)c(CC3CC3)c(F)c2F)C(C)(C)C)cn1 (racemic) [Compound 179, 4-(cyclopropylmethyl)-2,3,5,6-tetrafluorobenzyl (RS)-2-[2-(1,1-dimethylethyl)pyrimidin-5-yl]-3,3-dimethylbutanoate]
[1]
  mortality at 500 ppm: 80 to 100%
[2]
  mortality at 500 ppm: < 50%
[3]
  mortality at 500 ppm: 80 to 100%
[4]
  mortality at 500 ppm: 80 to 100%
[5]
  pest or weed control at 500 ppm: < 50%
[6]
  mortality at 500 ppm: < 50%
[7]
  mortality at 500 ppm: < 50%
[8]
  mortality at 500 ppm: < 50%
[9]
  mortality at 500 ppm: < 50%
[10]
  mortality at 500 ppm: < 50%

## C[C@@H](OC(=O)[C@@H](c1cnc(C2(C)CC2)nc1)C(C)(C)C)c1cccc(Oc2ccccc2)n1 (racemic) [Compound 203, (RS)-1-(6-phenoxypyrid-2-yl)ethyl (RS)-2-[2-(1-methylcyclopropyl)pyrimidin-5-yl]-3,3-dimethylbutanoate]
[1]
  mortality at 500 ppm: 80 to 100%
[2]
  mortality at 500 ppm: 50 to 79%
[3]
  mortality at 500 ppm: 80 to 100%
[4]
  mortality at 500 ppm: 80 to 100%
[5]
  pest or weed control at 500 ppm: 80 to 100%
[6]
  mortality at 500 ppm: 80 to 100%
[7]
  mortality at 500 ppm: 50 to 79%
[8]
  mortality at 500 ppm: 80 to 100%
[9]
  mortality at 500 ppm: 80 to 100%
[10]
  mortality at 500 ppm: < 50%

## C[C@@H](OC(=O)[C@@H](c1cnc(N(C)C)nc1)C(C)(C)C)c1cccc(Oc2ccccc2)n1 (racemic) [Compound 198, (RS)-1-(6-phenoxypyrid-2-yl)ethyl (RS)-2-[2-(N,N-dimethylamino)pyrimidin-5-yl]-3,3-dimethylbutanoate]
[1]
  mortality at 500 ppm: 80 to 100%
[2]
  mortality at 500 ppm: < 50%
[3]
  mortality at 500 ppm: 80 to 100%
[4]
  mortality at 500 ppm: 80 to 100%
[5]
  pest or weed control at 500 ppm: 80 to 100%
[6]
  mortality at 500 ppm: < 50%
[7]
  mortality at 500 ppm: 80 to 100%
[8]
  mortality at 500 ppm: 80 to 100%
[9]
  mortality at 500 ppm: 80 to 100%
[10]
  mortality at 500 ppm: 80 to 100%

## CC(C)(C)c1ncc(C(C(=O)OCc2c(F)c(F)c(COCc3ccc(Cl)cc3)c(F)c2F)C(C)(C)C)cn1 (racemic) [Compound 163, 4-[(4-chlorobenzyloxy)methyl]-2,3,5,6-tetrafluorobenyl (RS)-2-[2-(1,1-dimethylethyl)pyrimidin-5-yl]-3,3-dimethylbutanoate]
[1]
  mortality at 500 ppm: 80 to 100%
[2]
  mortality at 500 ppm: < 50%
[3]
  mortality at 500 ppm: < 50%
[4]
  mortality at 500 ppm: < 50%
[5]
  pest or weed control at 500 ppm: < 50%
[6]
  mortality at 500 ppm: < 50%
[7]
  mortality at 500 ppm: < 50%
[8]
  mortality at 500 ppm: < 50%
[9]
  mortality at 500 ppm: 50 to 79%
[10]
  mortality at 500 ppm: < 50%

## CC(C)SCc1c(F)c(F)c(COC(=O)C(c2cnc(C(C)(C)C)nc2)C(C)(C)C)c(F)c1F (racemic) [Compound 174]
[1]
  mortality at 500 ppm: 80 to 100%
[2]
  mortality at 500 ppm: < 50%
[3]
  mortality at 500 ppm: 80 to 100%
[4]
  mortality at 500 ppm: 50 to 79%
[5]
  pest or weed control at 500 ppm: < 50%
[6]
  mortality at 500 ppm: < 50%
[7]
  mortality at 500 ppm: < 50%
[8]
  mortality at 500 ppm: < 50%
[9]
  mortality at 500 ppm: < 50%
[10]
  mortality at 500 ppm: < 50%

## CCOC(=O)c1c(F)c(F)c(COC(=O)C(c2cnc(C(C)(C)C)nc2)C(C)(C)C)c(F)c1F (racemic) [Compound 170]
[1]
  mortality at 500 ppm: 80 to 100%
[2]
  mortality at 500 ppm: < 50%
[3]
  mortality at 500 ppm: < 50%
[4]
  mortality at 500 ppm: 50 to 79%
[5]
  pest or weed control at 500 ppm: 50 to 79%
[6]
  mortality at 500 ppm: < 50%
[7]
  mortality at 500 ppm: < 50%
[8]
  mortality at 500 ppm: < 50%
[9]
  mortality at 500 ppm: 80 to 100%
[10]
  mortality at 500 ppm: < 50%

## CSc1c(F)c(F)c(COC(=O)C(c2cnc(C(C)(C)C)nc2)C(C)(C)C)c(F)c1F (racemic) [Compound 183]
[1]
  mortality at 500 ppm: 80 to 100%
[2]
  mortality at 500 ppm: < 50%
[3]
  mortality at 500 ppm: < 50%
[4]
  mortality at 500 ppm: 80 to 100%
[5]
  pest or weed control at 500 ppm: 80 to 100%
[6]
  mortality at 500 ppm: 80 to 100%
[7]
  mortality at 500 ppm: < 50%
[8]
  mortality at 500 ppm: 80 to 100%
[9]
  mortality at 500 ppm: 80 to 100%
[10]
  mortality at 500 ppm: < 50%

## CCC(C)(C)c1ncc(C(C(=O)OCc2c(F)c(F)c(COC)c(F)c2F)C(C)(C)C)cn1 (racemic) [Compound 61, 2,3,5,6-tetrafluoro-4-(methoxymethyl)benzyl (RS)-2-[2-(1,1-dimethylpropyl)pyrimidin-5-yl]-3,3-dimethylbutanoate]
[1]
  mortality at 500 ppm: 80 to 100%
[2]
  mortality at 500 ppm: < 50%
[3]
  mortality at 500 ppm: 80 to 100%
[4]
  mortality at 500 ppm: 80 to 100%
[5]
  pest or weed control at 500 ppm: 80 to 100%
[6]
  mortality at 500 ppm: 80 to 100%
[7]
  mortality at 500 ppm: < 50%
[8]
  mortality at 500 ppm: < 50%
[9]
  mortality at 500 ppm: 80 to 100%
[10]
  mortality at 500 ppm: < 50%

## CC(C)(C)c1ncc(C(C(=O)OCc2cccc(Oc3ccccc3)n2)C(C)(C)C)cn1 (racemic) [Compound 9, (6-phenoxypyrid-2-yl)methyl (RS)-2-[2-(1,1-dimethylethyl)pyrimidin-5-yl]-3,3-dimethylbutanoate]
[1]
  mortality at 500 ppm: 80 to 100%
[2]
  mortality at 500 ppm: 80 to 100%
[3]
  mortality at 500 ppm: 80 to 100%
[4]
  mortality at 500 ppm: 80 to 100%
[5]
  pest or weed control at 500 ppm: 80 to 100%
[6]
  mortality at 500 ppm: 80 to 100%
[7]
  mortality at 500 ppm: 50 to 79%
[8]
  mortality at 500 ppm: 80 to 100%
[9]
  mortality at 500 ppm: 80 to 100%
[10]
  mortality at 500 ppm: 50 to 79%

## COCc1c(F)c(F)c(COC(=O)C(c2cnc(-c3ccccc3Cl)nc2)C(C)(C)C)c(F)c1F (racemic) [Compound 208, 2,3,5,6-tetrafluorbenzyl-4-(methoxymethyl)-benzyl (RS)-2-[2-(2-chlorophenyl)pyrimidin-5-yl]-3,3-dimethylbutanoate]
[1]
  mortality at 500 ppm: 80 to 100%
[2]
  mortality at 500 ppm: < 50%
[3]
  mortality at 500 ppm: 80 to 100%
[4]
  mortality at 500 ppm: 80 to 100%
[5]
  pest or weed control at 500 ppm: < 50%
[6]
  mortality at 500 ppm: < 50%
[7]
  mortality at 500 ppm: < 50%
[8]
  mortality at 500 ppm: < 50%
[9]
  mortality at 500 ppm: < 50%
[10]
  mortality at 500 ppm: < 50%
